Where two headings read alike, the source gives them in different places.
Assays:
human DGAT2 = biological target: T1, human DGAT2 (Homo sapiens, UniProt Q96PD7); assay: DGAT2 activity; assay type: biochemical
T1 sequence (Q96PD7 1-388): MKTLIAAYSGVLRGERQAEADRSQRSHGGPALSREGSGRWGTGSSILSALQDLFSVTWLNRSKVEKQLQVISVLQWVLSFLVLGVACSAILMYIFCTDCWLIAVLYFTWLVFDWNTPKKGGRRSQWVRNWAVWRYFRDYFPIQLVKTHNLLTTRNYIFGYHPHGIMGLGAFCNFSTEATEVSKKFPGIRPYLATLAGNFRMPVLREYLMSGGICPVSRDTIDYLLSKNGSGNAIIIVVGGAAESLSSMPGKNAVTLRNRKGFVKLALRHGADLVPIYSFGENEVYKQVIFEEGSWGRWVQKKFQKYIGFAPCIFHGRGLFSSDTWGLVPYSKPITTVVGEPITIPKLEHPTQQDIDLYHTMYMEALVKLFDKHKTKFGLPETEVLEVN

[1] = toxicokinetic analysis of plasma exposure in mice, oral dosing; assay type: in vivo, mice (Crl:CD-1(ICR)); details: for Cmax as multiple of mouse microsomal DGAT1 enzyme IC50 / Cmin as multiple of DGAT1 IC50: oral once daily
Source text: (§1) Doses and frequency of dosing were selected following consideration of species specific tolerability and pharmacokinetic parameters. Doses predicted to result in exposures which were likely to cause maximum DGAT1 inhibition without resulting in intolerability were chosen as the highest dose level.
The mice were killed by administration of halothane.

skin = details: clinical trials of short duration (Denison et al. 2013); cited from earlier work
sebaceous glands [2] = tested on: sebaceous glands
Experimental: Up to 8 (4 male and 4 female) beagle dogs per treatment group were obtained from the AstraZeneca breeding unit (Alderley Park, Macclesfield, UK). […] All animals were observed daily for clinical signs of toxicity. Body weight and food consumption was measured daily prior to dosing. Animals were single-penned, with access to an exercise area with others of the same sex and group, for the major part of each day. Animals had free access to water from the site drinking water supply. A set weight of SDS Dog-D3 (E) SQC, supplied by Special Diet Services Ltd, England, was provided daily, in the afternoon, access being allowed for up to approximately 2 hours. Toys (e.g., bones) were provided for additional environmental enhancement. Animals were terminated for scheduled necropsy on the day after the final dose. The dogs were killed by intravenous administration of sodium pentobarbitone and then exsanguinated.
(§2) For pharmacokinetic analysis, blood samples were collected into lithium heparin tubes from animals on either the first or penultimate day of the study. Plasma was separated by centrifugation at 4°C and stored for analysis at -20°C. […] Exposure data are presented as FDM (free drug concentration in blood plasma required to inhibit the microsomal DGAT1 enzyme by 50%) and are mean data for each dose level. […] At the end of each experiment, animals were terminally anaesthetised and representative samples of skin (mammary gland region for mice, abdominal region for dogs) were taken at necropsy, placed in 10% buffered formalin and processed for histopathological assessment. Conventional processing into wax and haematoxylin and eosin staining of sections preceded their light microscopic examination.
(§3) Light microscopic examination and histology scoring was performed by a certified pathologist and findings were peer reviewed by a second pathologist. Each section of skin contained from 15 - 25 hair follicles in different stages of differentiation with associated sebaceous glands that were cut in multiple planes. […] Therefore, assessment of sebaceous cell/gland atrophy was based on their appearances irrespective of the stage of differentiation of the associated hair follicle in all instances.

human DGAT1 = biological target: T2, human DGAT1 (Homo sapiens, UniProt O75907); assay: in vitro recombinant DGAT1 enzyme assay (human); assay type: biochemical
T2 sequence (O75907 1-488): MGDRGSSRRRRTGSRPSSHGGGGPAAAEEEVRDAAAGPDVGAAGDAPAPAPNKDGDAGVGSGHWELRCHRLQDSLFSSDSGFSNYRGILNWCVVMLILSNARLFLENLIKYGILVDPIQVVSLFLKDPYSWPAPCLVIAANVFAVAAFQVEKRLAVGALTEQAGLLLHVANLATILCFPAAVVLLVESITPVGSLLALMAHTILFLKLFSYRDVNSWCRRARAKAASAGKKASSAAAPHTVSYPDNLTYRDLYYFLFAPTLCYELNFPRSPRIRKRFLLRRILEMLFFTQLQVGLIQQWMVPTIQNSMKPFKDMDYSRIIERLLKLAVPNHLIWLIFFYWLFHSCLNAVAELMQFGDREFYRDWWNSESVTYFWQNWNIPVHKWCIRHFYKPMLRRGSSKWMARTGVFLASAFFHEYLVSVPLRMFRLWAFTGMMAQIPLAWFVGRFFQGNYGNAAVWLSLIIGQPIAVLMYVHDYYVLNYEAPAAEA

human ACAT2 = biological target: T3, human ACAT2 (Homo sapiens, UniProt O75908); assay: ACAT2 enzyme inhibition; assay type: biochemical
T3 sequence (O75908 1-522): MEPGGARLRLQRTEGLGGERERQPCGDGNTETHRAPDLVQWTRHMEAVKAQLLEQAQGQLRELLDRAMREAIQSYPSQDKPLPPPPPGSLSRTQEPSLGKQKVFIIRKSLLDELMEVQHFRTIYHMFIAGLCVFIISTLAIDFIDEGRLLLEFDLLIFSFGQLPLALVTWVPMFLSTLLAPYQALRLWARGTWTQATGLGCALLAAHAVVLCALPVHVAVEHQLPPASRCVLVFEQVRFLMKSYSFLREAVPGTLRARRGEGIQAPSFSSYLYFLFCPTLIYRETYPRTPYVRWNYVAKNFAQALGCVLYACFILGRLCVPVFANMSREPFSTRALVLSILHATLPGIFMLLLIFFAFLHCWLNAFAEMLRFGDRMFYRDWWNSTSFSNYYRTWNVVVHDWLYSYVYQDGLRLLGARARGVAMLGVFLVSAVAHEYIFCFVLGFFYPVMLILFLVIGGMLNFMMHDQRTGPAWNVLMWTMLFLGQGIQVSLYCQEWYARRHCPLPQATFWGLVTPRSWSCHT

sebaceous glands [3] = tested on: sebaceous glands; remark: listed apart in the source
Source text: Up to 32 (16 male and 16 female) mice (Crl:CD-1(ICR)) per dose group were obtained from the AstraZeneca breeding unit (Alderley Park, Macclesfield, UK). The animals, aged 7-8 weeks, were allowed to acclimatise for at least one week, were multiple-housed, sexes separately, up to 5/cage. Water from the site drinking water supply and RM1 (E) SQC pelleted diet supplied by Special Diets Services Ltd., England, was freely available. Nesting material (Tapvei Aspen Chips, Tapvei small aspen bricks, Finland, sizzle nests and paper shavings, and polycarbonate tunnels, Datesand,UK) was provided. Animals were terminated for scheduled necropsy on the day after the final dose. The mice were killed by administration of halothane.
as §2, §3

[4] = toxicokinetic analysis of plasma exposure in dogs, oral dosing; assay type: in vivo, beagle dogs
Source text: as §1

dog DGAT1 = biological target: T4, dog DGAT1 (Canis lupus familiaris, UniProt A0A8I3NFS1); assay: in vitro recombinant DGAT1 enzyme assay (dog); assay type: biochemical
T4 sequence (A0A8I3NFS1 67-492): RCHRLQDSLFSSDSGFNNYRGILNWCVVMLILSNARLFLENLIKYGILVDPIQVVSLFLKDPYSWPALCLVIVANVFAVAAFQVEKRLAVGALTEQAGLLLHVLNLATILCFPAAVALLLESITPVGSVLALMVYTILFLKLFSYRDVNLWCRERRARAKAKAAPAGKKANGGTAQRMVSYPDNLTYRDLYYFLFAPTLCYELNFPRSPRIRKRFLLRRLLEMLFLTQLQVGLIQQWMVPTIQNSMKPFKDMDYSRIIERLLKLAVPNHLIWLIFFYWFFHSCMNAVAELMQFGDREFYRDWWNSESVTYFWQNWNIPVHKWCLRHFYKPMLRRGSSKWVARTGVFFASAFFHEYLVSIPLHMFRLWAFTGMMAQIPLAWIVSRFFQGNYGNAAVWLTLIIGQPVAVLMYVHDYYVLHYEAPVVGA

mouse DGAT1 = biological target: T5, mouse DGAT1 (Mus musculus, UniProt Q9Z2A7); assay: in vitro recombinant DGAT1 enzyme assay (mouse); assay type: biochemical
T5 sequence (Q9Z2A7 1-498): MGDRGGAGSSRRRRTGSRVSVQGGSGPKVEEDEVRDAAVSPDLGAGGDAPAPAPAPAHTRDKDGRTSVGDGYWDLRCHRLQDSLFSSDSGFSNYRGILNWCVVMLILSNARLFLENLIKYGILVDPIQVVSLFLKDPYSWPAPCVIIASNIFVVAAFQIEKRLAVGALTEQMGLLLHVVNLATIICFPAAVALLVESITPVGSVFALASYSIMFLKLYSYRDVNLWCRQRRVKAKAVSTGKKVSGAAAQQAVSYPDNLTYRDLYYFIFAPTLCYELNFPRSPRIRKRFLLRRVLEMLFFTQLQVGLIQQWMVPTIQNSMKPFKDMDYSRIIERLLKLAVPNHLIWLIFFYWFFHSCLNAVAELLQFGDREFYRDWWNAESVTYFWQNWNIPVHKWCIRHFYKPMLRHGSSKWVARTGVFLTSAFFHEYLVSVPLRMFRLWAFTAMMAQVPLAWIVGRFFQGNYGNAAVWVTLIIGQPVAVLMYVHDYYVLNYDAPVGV

[5] = 1mg/kg/day dose group, 180 day study
[6] = 600 mg/kg/day dose group, 7 day study
[7] = mouse, 1 month and 6 month studies

Cc1nc(C)c(-c2ccc([C@H]3CC[C@H](CC(=O)O)CC3)cc2)nc1C(N)=O [2-((1R,4R)-4-(4-(6-carbamoyl-3,5-dimethylpyrazin-2-yl)phenyl)cyclohexyl)acetic acid]
activity against human DGAT2 (human DGAT2): No activity | Cmax as multiple of mouse microsomal DGAT1 enzyme IC50 [1, 5]: 4 x IC50 | Cmin as multiple of DGAT1 IC50 [1, 5]: 1 x IC50 | Cmax as multiple of mouse microsomal DGAT1 enzyme IC50 [1, 6]: 1581 x IC50 | Cmin as multiple of DGAT1 IC50 [1, 6]: 766 x IC50 | sex difference in exposure ([1]; male versus female mice): 1.5 - 3 x | effects on the skin of healthy volunteers (skin): no effects | duration of DGAT1 inhibition required for microscopical detection of sebaceous gland atrophy (sebaceous glands [2]; dog): more than 7 days | exposure at Cmin with mild to moderate sebaceous gland atrophy (sebaceous glands [2]; dog): > 36 x FDM | exposure at Cmin with minimal to mild sebaceous gland atrophy (sebaceous glands [2]; dog): 7-54 x FDM | skin photomicrograph appearance of sebaceous glands (Figure 6 B) (sebaceous glands [2]; dog, 100 mg/kg/day for 6 months): atrophic sebaceous glands which contain little sebum | additional skin changes (occasional hair follicle atrophy, hair-loss and skin lesions) (sebaceous glands [2]; dog, in vivo): not observed | hyperkeratosis of the epithelium covering the infundibula of hair follicles (sebaceous glands [2]; dog, in vivo): minimal hyperkeratosis | significant increase in inflammation in the skin (sebaceous glands [2]; dog, in vivo): not seen | tolerability (sebaceous glands [2]; dog, in vivo): well tolerated | sebaceous gland atrophy (sebaceous glands [2]; dogs dosed for up to 7 days): absent | reversibility of sebaceous gland atrophy (sebaceous glands [2]; dogs, 4 week drug-free period after 3 months of dosing): complete reversibility | group mean severity of sebaceous gland atrophy (sebaceous glands [2]; dogs, after 3 months (90 days) of dosing): minimal to moderate | group mean severity of sebaceous gland atrophy (sebaceous glands [2]; dogs, after 14 days of dosing): minimal to mild | group mean severity of sebaceous gland atrophy (sebaceous glands [2]; dogs, highest dose group after 6 months (180 days)): moderate | IC50 (human DGAT1): ~80 nM | IC50 (human ACAT2): > 35 µM | exposure at Cmin at which additional skin findings occurred (sebaceous glands [3]; Crl:CD-1(ICR), mouse, in vivo, 6 months): ≥ 7 x FDM | skin photomicrograph appearance of sebaceous glands (Figure 5 B) (sebaceous glands [3]; male mouse, 300 mg/kg/day for 6 months): substantial atrophy of sebaceous glands with much reduced sebum and mild hyperkeratosis | reversibility of sebaceous gland atrophy (sebaceous glands [3]; mice, 4 week drug-free period after 1 month of treatment): complete reversibility | group mean severity of sebaceous gland atrophy (sebaceous glands [3]; mice, after 1 month (28 days) of dosing): minimal to mild | group mean severity of sebaceous gland atrophy (sebaceous glands [3]; mice, after 6 months (180 days) of dosing): minimal to moderate | sebaceous gland atrophy (sebaceous glands [3]; mice, high doses for up to 7 days): absent | duration of DGAT1 inhibition required for microscopical detection of sebaceous gland atrophy (sebaceous glands [3]; mouse): more than 7 days | skin photomicrograph appearance of sebaceous glands (Figure 1 B) (sebaceous glands [3]; mouse, 300 mg/kg/day for 28 days): severely atrophic sebaceous glands with substantially reduced sebum | skin photomicrograph appearance of sebaceous glands (Figure 1 C) (sebaceous glands [3]; mouse, 300 mg/kg/day for 28 days followed by drug free recovery period of 28 days): normal appearance of sebum filled sebaceous glands | exposure at Cmin with mild to moderate sebaceous gland atrophy (sebaceous glands [3]; [7]): 46 x FDM | exposure at Cmin with minimal to mild sebaceous gland atrophy (sebaceous glands [3]; [7]): 7 - 40 x FDM | exposure at Cmax at which additional skin findings occurred (sebaceous glands [3]; mouse, in vivo): at least 50 x FDM | histopathological findings in the skin (sebaceous glands [3]; mouse, in vivo): restricted to sebaceous gland atrophy only | significant increase in inflammation in the skin (sebaceous glands [3]; mouse, in vivo): not seen | skin findings associated with sebaceous gland atrophy (sebaceous glands [3]; mouse, in vivo): epidermal hyperplasia, occasional hair follicle atrophy, as well as in-life observation of hair-loss and skin lesions | tolerability (sebaceous glands [3]; mouse, in vivo): well tolerated | Cmax as multiple of dog microsomal DGAT1 enzyme IC50 ([4]; 4 mg/kg/day dose group, 3 month study): 10 x IC50 | Cmin as multiple of DGAT1 IC50 ([4]; 4 mg/kg/day dose group, 3 months study): 1 x IC50 | Cmin as multiple of DGAT1 IC50 ([4]; 1000 mg/kg/day dose group, 7 day study): 54 x IC50 | Cmax as multiple of dog microsomal DGAT1 enzyme IC50 ([4]; 1000 mg/kg/day dose group, 'in the same study' (3 month study as printed)): 292 x IC50 | IC50 (dog DGAT1): ~60 nM | IC50 (mouse DGAT1): ~100 nM

Reference: patent EP3177293B1, “METHOD OF TREATING SKIN CONDITIONS” (Astrazeneca AB, priority 2014, dated 2015)
